According to publication PMC9413514, “Accessing Lipophilicity and Biomimetic Chromatography Profile of Biologically Active Ingredients of Botanicals Used in the Treatment of Inflammatory Bowel Disease” (Pharmaceuticals, 2022):

Target: T1, human serum albumin (HSA) (Homo sapiens, UniProt P02768)
T1 construct: purchased ChromTech (Cedex, France) Chiralpak-HSA
Experiment: HSA-HPAC assay (plasma protein binding)
Type: in vitro ADME
Conditions: Chiralpak-HSA, pH 7.4, 25 °C; spread is RSD in %
Description: (§1) The gradient retention times obtained by HSA-HPAC and AGP-HPAC assays were standardized using a calibration set of compounds with known percentage of plasma protein binding data and procedure described in our previously published study. […] This verification assured that the protein affinity indices obtained by HPAC assays depict not only unspecific generally lipophilicity-driven interactions, but also highly specific recognition forces responsible of enantioselectivity.
(§2) Stock solutions of analytes and calibration standards were prepared by dissolving 10 mg of each solute in 10 mL of methanol and kept at 4 °C. Working solutions were freshly prepared at the beginning of each day by dilution of the stock solutions to 100 μg/mL with methanol for TLC measurements or mobile phase for HPLC measurements. Before use, the samples were sonicated (Elmasonic XtraTT, Elma Schmidbauer) for 10 min at 25 °C and all working solutions were filtered through 0.2 µm polyethersulfone filters (Obrnuta faza). To protect analytes from photodegradation, the amber glass HPLC vials were used.
(§3) The binding of biologically active compounds to the plasma proteins was investigated using affinity chromatographic columns by ChromTech (Cedex, France) containing immobilized human serum albumin (HSA) (Chiralpak-HSA, length 50 mm, i.d. 4.6 mm, particle size 5 µm) and α1-acid glycoprotein (AGP) (Chiralpak-AGP, length 50 mm, i.d. 4.6 mm, particle size 5 µm) and Agilent HPLC 1100 instrument. The 20 mM potassium phosphate buffer with the pH adjusted to 7.4 and iso-propanol were used as mobile phase components A and B. Retention data were collected at 25.0 ± 0.1 °C using gradient program as follows: 0 min/0% B, 6 min/30% B, 15 min/30% B and 20 min/0% B. Injection volume was set at 10 µL and the measurements were carried out at 25.0 ± 0.1 °C with flow rate of 1.5 mL/min. The absorbance of the analytes during a chromatographic run was collected in the spectral range 200–400 nm, and the detection wavelength for each analyte was the one providing the maximum peak height.

T1 sequence (P02768 25-609): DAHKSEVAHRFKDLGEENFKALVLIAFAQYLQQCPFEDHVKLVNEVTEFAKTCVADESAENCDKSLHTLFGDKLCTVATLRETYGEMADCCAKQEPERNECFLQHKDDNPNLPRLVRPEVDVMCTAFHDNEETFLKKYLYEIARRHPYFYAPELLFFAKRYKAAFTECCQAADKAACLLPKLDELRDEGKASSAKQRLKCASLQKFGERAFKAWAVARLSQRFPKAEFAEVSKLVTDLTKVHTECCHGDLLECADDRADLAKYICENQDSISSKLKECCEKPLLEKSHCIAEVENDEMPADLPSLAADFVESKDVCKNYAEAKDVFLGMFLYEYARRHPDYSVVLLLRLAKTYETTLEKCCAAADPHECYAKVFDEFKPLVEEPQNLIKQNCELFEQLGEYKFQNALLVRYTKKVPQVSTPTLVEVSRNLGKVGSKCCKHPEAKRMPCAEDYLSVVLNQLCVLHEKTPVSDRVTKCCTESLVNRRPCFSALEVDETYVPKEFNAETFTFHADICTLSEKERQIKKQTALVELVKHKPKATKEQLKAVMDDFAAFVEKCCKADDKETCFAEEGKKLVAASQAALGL

| SMILES | HSA Binding ± RSD (%) (n = 3) |
| --- | --- |
| O=C(C=Cc1ccc(O)cc1)CC(=O)C=Cc1ccc(O)cc1 [Bisdemetoxycurcumin, bisdemetoxycurcumin] | 98.37 ± 0.10 |
| COc1cc(/C=C/C(=O)CC(=O)/C=C/c2ccc(O)cc2)ccc1O [Demetoxycurcumin, demetoxycurcumin] | 97.97 ± 0.35 |
| O=C(/C=C/C=C/c1ccc2c(c1)OCO2)N1CCCCC1 [Piperine, piperine] | 95.48 ± 0.41 |

Results, then the compound that gave them:

| HSA Binding ± RSD (%) (n = 3) | SMILES |
| --- | --- |
| 80.07 ± 0.74 | C=C1CC[C@@H]2[C@](C)(CO)[C@H](O)CC[C@@]2(C)[C@@H]1C/C=C1/C(=O)OC[C@H]1O [Andrographolide, andrographolide] |
| 87.71 ± 0.41 | C=C1CC[C@@H]2[C@](C)(CO[C@@H]3O[C@H](CO)[C@@H](O)[C@H](O)[C@H]3O)CCC[C@@]2(C)[C@@H]1CCC1=CCOC1=O [Neoandrographolide, neoandrographolide] |

System: α1-acid glycoprotein (AGP)
Experiment: AGP-HPAC assay (plasma protein binding)
Type: in vitro ADME
Conditions: Chiralpak-AGP, pH 7.4, 25 °C; spread is RSD in %
Description: as §1, §2, §3

| SMILES | AGP Binding ± RSD (%) (n = 3) |
| --- | --- |
| O=C(C=Cc1ccc(O)cc1)CC(=O)C=Cc1ccc(O)cc1 [Bisdemetoxycurcumin, bisdemetoxycurcumin] | 83.14 ± 1.15 |
| COc1cc(/C=C/C(=O)CC(=O)/C=C/c2ccc(O)cc2)ccc1O [Demetoxycurcumin, demetoxycurcumin] | 82.92 ± 1.15 |
| O=C(/C=C/C=C/c1ccc2c(c1)OCO2)N1CCCCC1 [Piperine, piperine] | 71.98 ± 1.33 |

The next lines start with the values.

| AGP Binding ± RSD (%) (n = 3) | SMILES |
| --- | --- |
| 37.13 ± 1.11 | C=C1CC[C@@H]2[C@](C)(CO)[C@H](O)CC[C@@]2(C)[C@@H]1C/C=C1/C(=O)OC[C@H]1O [Andrographolide, andrographolide] |
| 64.95 ± 0.41 | C=C1CC[C@@H]2[C@](C)(CO[C@@H]3O[C@H](CO)[C@@H](O)[C@H](O)[C@H]3O)CCC[C@@]2(C)[C@@H]1CCC1=CCOC1=O [Neoandrographolide, neoandrographolide] |

System: not listed separately
Experiment: IAM-HPLC assay (lipophilicity, affinity to phospholipids)
Type: physicochemical
Conditions: IAM P.C.DD2 column, PBS pH 7.4/methanol, extrapolated to zero organic modifier
Experimental: IAM columns provide potential to simulate membrane permeability since the amphiphilic character of phospholipid functional groups plays an important role in IAM retention especially when charged molecules are analysed.
as §2
C18-HPLC assay was carried out at Agilent HPLC 1100 and Zorbax SB C18 chromatographic column (length 250 mm.6 mm, particle size 5 µm) by Agilent Technologies, while IAM-HPLC assay was conducted using IAM P.C.DD2 chromatographic column (length 50 mm, i.d. 3.0 mm, particle size […]) by Regis Technologies (Morton Grove, IL, USA). Retention data were collected at 25.0 ± 0.1 °C using isocratic method working with mobile phases, mixing the respective amounts of PBS (10 mM, pH 7.4) and methanol from 35% to 80% of organic solvent in 5% increment. Each mobile phase was shaken vigorously and filtrated through membrane filter, no. 66, diameter 47 mm, pore size 0.45 µm by Supelco and degassed by sonication 5 min before use. The injection volume was set at 10 µL, and the measurements were carried out at flow rate 1.0 mL/min. Natrium nitrate solution (0.1 mg/mL in mobile phase) was used as the marker of dead-time. The absorbance of the analytes during a chromatographic run was collected in the spectral range of 200–400 nm, and the detection wavelength for each analyte was the one providing the maximum peak height.

| SMILES | logk0 IAM (HPLC lipophilicity index, intercept of linear equation) |
| --- | --- |
| O=C(C=Cc1ccc(O)cc1)CC(=O)C=Cc1ccc(O)cc1 [Bisdemetoxycurcumin, bisdemetoxycurcumin] | y = −0.0568 x + 4.6386 |
| COc1cc(/C=C/C(=O)CC(=O)/C=C/c2ccc(O)cc2)ccc1O [Demetoxycurcumin, demetoxycurcumin] | y = −0.0555 x + 4.4229 |
| O=C(/C=C/C=C/c1ccc2c(c1)OCO2)N1CCCCC1 [Piperine, piperine] | y = −0.0512 x + 3.2026 |

Second part, the compound after the results:

| logk0 IAM (HPLC lipophilicity index, intercept of linear equation) | SMILES |
| --- | --- |
| y = −0.0464 x + 2.2763 | C=C1CC[C@@H]2[C@](C)(CO)[C@H](O)CC[C@@]2(C)[C@@H]1C/C=C1/C(=O)OC[C@H]1O [Andrographolide, andrographolide] |
| y = −0.0620 x + 3.4572 | C=C1CC[C@@H]2[C@](C)(CO[C@@H]3O[C@H](CO)[C@@H](O)[C@H](O)[C@H]3O)CCC[C@@]2(C)[C@@H]1CCC1=CCOC1=O [Neoandrographolide, neoandrographolide] |

Same assay, conditions: compared to andrographolide

| difference in logk0 IAM values versus andrographolide [units] | SMILES |
| --- | --- |
| 1.18 | C=C1CC[C@@H]2[C@](C)(CO[C@@H]3O[C@H](CO)[C@@H](O)[C@H](O)[C@H]3O)CCC[C@@]2(C)[C@@H]1CCC1=CCOC1=O [Neoandrographolide, neoandrographolide] |
